According to ChEMBL document CHEMBL3046635, “Synthesis and Herbicidal Activity of New Pyrazole-4-carboxamide Derivatives” (J Pestic Sci, 2004):
Activity calls are given as the source filed them.

system: Rotala indica; assay: Pre-emergence herbicidal activity against Rotala indica at 500 g a.i/ha measured after 14 days; format: functional, organism-based; conditions: not given

SMILES | Activity
CCONC(=O)c1cn(CC)nc1OCc1cccc(C(F)(F)F)c1 | Active

system: Elatine triandra; assay: Post-emergence herbicidal activity against Elatine triandra assessed as bleaching of stem/leaf parts; format: functional, organism-based; conditions: not given; further: test concentration or dose not given here

SMILES | Activity
CCONC(=O)c1cn(CC)nc1OCc1cccc(C(F)(F)F)c1 | Active

system: Lindernia procumbens; assay: Pre-emergence herbicidal activity against Lindernia procumbens at 500 g a.i/ha measured after 14 days; format: functional, organism-based; conditions: not given

SMILES | Activity
CCONC(=O)c1cn(CC)nc1OCc1cccc(C(F)(F)F)c1 | Active

system: Rotala indica; assay: Post-emergence herbicidal activity against Rotala indica assessed as bleaching of stem/leaf parts; format: functional, organism-based; conditions: not given; further: test concentration or dose not given here

SMILES | Activity
CCONC(=O)c1cn(CC)nc1OCc1cccc(C(F)(F)F)c1 | Active

system: Pontederia vaginalis; assay: Pre-emergence herbicidal activity against Monochoria vaginalis at 500 g a.i/ha measured after 14 days; format: functional, organism-based; conditions: not given

SMILES | Activity
CCONC(=O)c1cn(CC)nc1OCc1cccc(C(F)(F)F)c1 | Active

system: Rotala indica; assay: Pre-emergence herbicidal activity against Rotala indica assessed as bleaching of stem/leaf parts; format: functional, organism-based; conditions: not given

SMILES | Activity
CCONC(=O)c1cn(CC)nc1OCc1cccc(C(F)(F)F)c1 | Active

system: Eleocharis acicularis; assay: Pre-emergence herbicidal activity against Eleocharis acicularis at 500 g a.i/ha measured after 14 days; format: functional, organism-based; conditions: not given

SMILES | Activity
CCONC(=O)c1cn(CC)nc1OCc1cccc(C(F)(F)F)c1 | Active

system: Pontederia vaginalis; assay: Post-emergence herbicidal activity against Monochoria vaginalis assessed as bleaching of stem/leaf parts; format: functional, organism-based; conditions: not given; further: test concentration or dose not given here

SMILES | Activity
CCONC(=O)c1cn(CC)nc1OCc1cccc(C(F)(F)F)c1 | Active

system: Schoenoplectiella juncoides; assay: Pre-emergence herbicidal activity against Schoenoplectiella juncoides at 500 g a.i/ha measured after 14 days; format: functional, organism-based; conditions: not given

SMILES | Activity
CCONC(=O)c1cn(CC)nc1OCc1cccc(C(F)(F)F)c1 | Active

system: Cyperus difformis; assay: Post-emergence herbicidal activity against Cyperus difformis assessed as bleaching of stem/leaf parts; format: functional, organism-based; conditions: not given; further: test concentration or dose not given here

SMILES | Activity
CCONC(=O)c1cn(CC)nc1OCc1cccc(C(F)(F)F)c1 | Active

system: Ammannia multiflora; assay: Pre-emergence herbicidal activity against Ammannia multiflora assessed as bleaching of stem/leaf parts; format: functional, organism-based; conditions: not given

SMILES | Activity
CCONC(=O)c1cn(CC)nc1OCc1cccc(C(F)(F)F)c1 | Active

system: Echinochloa oryzicola; assay: Pre-emergence herbicidal activity against Echinochloa oryzicola assessed as bleaching of stem/leaf parts; format: functional, organism-based; conditions: not given

SMILES | Activity
CCONC(=O)c1cn(CC)nc1OCc1cccc(C(F)(F)F)c1 | Active

system: Ammannia multiflora; assay: Post-emergence herbicidal activity against Ammannia multiflora assessed as bleaching of stem/leaf parts; format: functional, organism-based; conditions: not given; further: test concentration or dose not given here

SMILES | Activity
CCONC(=O)c1cn(CC)nc1OCc1cccc(C(F)(F)F)c1 | Active

system: Elatine triandra; assay: Pre-emergence herbicidal activity against Elatine triandra assessed as bleaching of stem/leaf parts; format: functional, organism-based; conditions: not given

SMILES | Activity
CCONC(=O)c1cn(CC)nc1OCc1cccc(C(F)(F)F)c1 | Active

system: Echinochloa oryzicola; assay: Post-emergence herbicidal activity against Echinochloa oryzicola assessed as bleaching of stem/leaf parts; format: functional, organism-based; conditions: not given; further: test concentration or dose not given here

SMILES | Activity
CCONC(=O)c1cn(CC)nc1OCc1cccc(C(F)(F)F)c1 | Active

system: Ammannia multiflora; assay: Pre-emergence herbicidal activity against Ammannia multiflora at 500 g a.i/ha measured after 14 days; format: functional, organism-based; conditions: not given

SMILES | Activity
CCONC(=O)c1cn(CC)nc1OCc1cccc(C(F)(F)F)c1 | Active

system: Echinochloa oryzicola; assay: Pre-emergence herbicidal activity against Echinochloa oryzicola at 500 g a.i/ha measured after 14 days; format: functional, organism-based; conditions: not given

SMILES | Activity
CCONC(=O)c1cn(CC)nc1OCc1cccc(C(F)(F)F)c1 | Active

system: Cyperus difformis; assay: Pre-emergence herbicidal activity against Cyperus difformis at 100 g a.i/ha measured after 14 days; format: functional, organism-based; conditions: not given

SMILES | Activity
CCONC(=O)c1cn(CC)nc1OCc1cccc(C(F)(F)F)c1 | Active

system: Schoenoplectiella juncoides; assay: Post-emergence herbicidal activity against Schoenoplectiella juncoides assessed as bleaching of stem/leaf parts; format: functional, organism-based; conditions: not given; further: test concentration or dose not given here

SMILES | Activity
CCONC(=O)c1cn(CC)nc1OCc1cccc(C(F)(F)F)c1 | Active

system: Lindernia procumbens; assay: Pre-emergence herbicidal activity against Lindernia procumbens at 100 g a.i/ha measured after 14 days; format: functional, organism-based; conditions: not given

SMILES | Activity
CCONC(=O)c1cn(CC)nc1OCc1cccc(C(F)(F)F)c1 | Active

system: Elatine triandra; assay: Pre-emergence herbicidal activity against Elatine triandra at 500 g a.i/ha measured after 14 days; format: functional, organism-based; conditions: not given

SMILES | Activity
CCONC(=O)c1cn(CC)nc1OCc1cccc(C(F)(F)F)c1 | Active

system: Pontederia vaginalis; assay: Pre-emergence herbicidal activity against Monochoria vaginalis at 100 g a.i/ha measured after 14 days; format: functional, organism-based; conditions: not given

SMILES | Activity
CCONC(=O)c1cn(CC)nc1OCc1cccc(C(F)(F)F)c1 | inactive

system: Eleocharis acicularis; assay: Post-emergence herbicidal activity against Eleocharis acicularis assessed as bleaching of stem/leaf parts; format: functional, organism-based; conditions: not given; further: test concentration or dose not given here

SMILES | Activity
CCONC(=O)c1cn(CC)nc1OCc1cccc(C(F)(F)F)c1 | Active

system: Rotala indica; assay: Pre-emergence herbicidal activity against Rotala indica at 100 g a.i/ha measured after 14 days; format: functional, organism-based; conditions: not given

SMILES | Activity
CCONC(=O)c1cn(CC)nc1OCc1cccc(C(F)(F)F)c1 | Active

system: Schoenoplectiella juncoides; assay: Pre-emergence herbicidal activity against Schoenoplectiella juncoides at 100 g a.i/ha measured after 14 days; format: functional, organism-based; conditions: not given

SMILES | Activity
CCONC(=O)c1cn(CC)nc1OCc1cccc(C(F)(F)F)c1 | inactive

system: Cyperus difformis; assay: Pre-emergence herbicidal activity against Cyperus difformis assessed as bleaching of stem/leaf parts; format: functional, organism-based; conditions: not given

SMILES | Activity
CCONC(=O)c1cn(CC)nc1OCc1cccc(C(F)(F)F)c1 | Active

system: Lindernia procumbens; assay: Post-emergence herbicidal activity against Lindernia procumbens assessed as bleaching of stem/leaf parts; format: functional, organism-based; conditions: not given; further: test concentration or dose not given here

SMILES | Activity
CCONC(=O)c1cn(CC)nc1OCc1cccc(C(F)(F)F)c1 | Active

system: Schoenoplectiella juncoides; assay: Pre-emergence herbicidal activity against Schoenoplectiella juncoides assessed as bleaching of stem/leaf parts; format: functional, organism-based; conditions: not given

SMILES | Activity
CCONC(=O)c1cn(CC)nc1OCc1cccc(C(F)(F)F)c1 | Active

system: Pontederia vaginalis; assay: Pre-emergence herbicidal activity against Monochoria vaginalis assessed as bleaching of stem/leaf parts; format: functional, organism-based; conditions: not given

SMILES | Activity
CCONC(=O)c1cn(CC)nc1OCc1cccc(C(F)(F)F)c1 | Active

system: Lindernia procumbens; assay: Pre-emergence herbicidal activity against Lindernia procumbens assessed as bleaching of stem/leaf parts; format: functional, organism-based; conditions: not given

SMILES | Activity
CCONC(=O)c1cn(CC)nc1OCc1cccc(C(F)(F)F)c1 | Active

system: Echinochloa oryzicola; assay: Pre-emergence herbicidal activity against Echinochloa oryzicola at 100 g a.i/ha measured after 14 days; format: functional, organism-based; conditions: not given

SMILES | Activity
CCONC(=O)c1cn(CC)nc1OCc1cccc(C(F)(F)F)c1 | Active

system: Oryza sativa; assay: Phytotoxicity against Oryza sativa cv. Koshihikari (rice) at 100 g a.i/ha measured after 14 days; format: organism-based; conditions: in vivo, 336 h

SMILES | Activity
CCONC(=O)c1cn(CC)nc1OCc1cccc(C(F)(F)F)c1 | Non-toxic

system: Cyperus difformis; assay: Pre-emergence herbicidal activity against Cyperus difformis at 500 g a.i/ha measured after 14 days; format: functional, organism-based; conditions: not given

SMILES | Activity
CCONC(=O)c1cn(CC)nc1OCc1cccc(C(F)(F)F)c1 | Active

system: Eleocharis acicularis; assay: Pre-emergence herbicidal activity against Eleocharis acicularis at 100 g a.i/ha measured after 14 days; format: functional, organism-based; conditions: not given

SMILES | Activity
CCONC(=O)c1cn(CC)nc1OCc1cccc(C(F)(F)F)c1 | inactive

system: Oryza sativa; assay: Phytotoxicity against Oryza sativa cv. Koshihikari (rice) at 500 g a.i/ha measured after 14 days; format: organism-based; conditions: in vivo, 336 h

SMILES | Activity
CCONC(=O)c1cn(CC)nc1OCc1cccc(C(F)(F)F)c1 | Non-toxic

system: Elatine triandra; assay: Pre-emergence herbicidal activity against Elatine triandra at 100 g a.i/ha measured after 14 days; format: functional, organism-based; conditions: not given

SMILES | Activity
CCONC(=O)c1cn(CC)nc1OCc1cccc(C(F)(F)F)c1 | Active

system: Ammannia multiflora; assay: Pre-emergence herbicidal activity against Ammannia multiflora at 100 g a.i/ha measured after 14 days; format: functional, organism-based; conditions: not given

SMILES | Activity
CCONC(=O)c1cn(CC)nc1OCc1cccc(C(F)(F)F)c1 | Active

system: Eleocharis acicularis; assay: Pre-emergence herbicidal activity against Eleocharis acicularis assessed as bleaching of stem/leaf parts; format: functional, organism-based; conditions: not given

SMILES | Activity
CCONC(=O)c1cn(CC)nc1OCc1cccc(C(F)(F)F)c1 | Active
